In US9358262B2, “Use of antioxidant-enriched fermented blueberry extracts in the treatment of diabetes” (priority 2003, dated 2016) one finds Cell viability, Antiradical activity and Antiradical power data, which are given here for two compounds.

Structures are written as SMILES.

Data set [1] concerns RAW 264.7 gamma NO(−) macrophages. As to the kind of experiment: Cell viability of activated macrophages (MTT or resazurin assay). Type of data set: cell-based, mouse. The protocol: Cell culture. […] All cultures were incubated at 37° C. in a humidified atmosphere with 5% CO2. Cell number was assessed by trypan blue dye exclusion on a Neubauer hemacytometer. Cells were grown to 90% confluence in sterile cell culture flasks and gently detached using a scraper (Fisher Scientific). For phenolic compound treatment tests, cells were cultured in triplicate in Costar flat-bottom cell culture plates (Corning Inc.). Cells were plated at a density of 6×10^5 cells/well in 24-well cell culture plates and grown for 1 h to allow them to attach to the plate. Compounds to be tested were initially dissolved in 10 μl of DMSO, and then RPMI was added to make solutions in a series of concentrations with a dilution factor of 2. […] Cells were supplemented with the test compounds for 1 h before stimulation with 10 ng/ml lipopolysaccharide (LPS) and 10-50 units/ml interferon gamma (IFN-γ). The activated cells were incubated for 24 h and then supernatants were collected to determine nitrite concentration and/or stored at −80° C. for further use. Control cells were grown under identical conditions but were not exposed to the test compounds or LPS/IFN-γ.
Cell Viability. Cell viability was determined by the MTT assay and/or the resazurin-based in vitro toxicology assay kit, TOX-8 (Sigma). The viability of cells activated only by LPS/IFN-γ was arbitrarily set as 100, and all other viabilities, that is, cells receiving different treatments but within the same 24-well plate, were normalized to that of the LPS/IFN-γ activated control cells.
Inhibition of Nitric Oxide Production. […] Cell viability was assayed to exclude the possibility that the inhibitory effects of phenolic compounds were due to their cytotoxicity. The MTT assay was used for the colorless phenolic compound-treated macrophages, whereas the resazurin assay was used for cranberry and blueberry juice-treated macrophages.
A general note: Tetrazolium assays rely on reduction of a dye to a coloured formazan, in cell work by metabolically active cells.

For data set [2] the following is noted: reference phenolic compounds, Fukumoto and Mazza (2000); cited from earlier work.
Setting [3] is: NO experiment (Table 7), 31 μM, LPS/IFN-γ control = 100.
[4] abbreviates: NO experiment (Table 7), 63 μM, LPS/IFN-γ control = 100.
[5] abbreviates: NO experiment (Table 7), 125 μM, LPS/IFN-γ control = 100.
[6] abbreviates: TNF-α experiment (Table 8), 100 μM.
The mark [7] stands for this setting: TNF-α experiment (Table 8), 200 μM.
[8] abbreviates: TNF-α experiment (Table 8), 300 μM.
Where [9] appears, read: TNF-α experiment (Table 8), 400 μM.
Setting [10] is: TNF-α experiment (Table 8), 500 μM.

`O=C(/C=C/c1ccc(O)c(O)c1)O[C@@H]1C[C@](O)(C(=O)O)C[C@@H](O)[C@H]1O` [Chlorogenic acid]: the Cell viability in data set [1] (setting [3]) is reported as 105.6 (8.7) %; in data set [1] (setting [4]), 106 (5.7) %; in data set [1] (setting [5]), 98.5 (7.1) %; in data set [1] (setting [6]), 100.6 (1.9) %; in data set [1] (setting [7]), 98.9 (2.3) %; in data set [1] (setting [8]), 97.1 (1.4) %. The Cell viability in data set [1] (setting [9]) is reported as 97.3 (1) %; in data set [1] (setting [10]), 99 (1.9) %.
As to `O=C(O)c1cc(O)c(O)c(O)c1` [Gallic acid], the Cell viability in data set [1] (NO experiment (Table 7), 16 μM, LPS/IFN-γ control = 100) is given as 110 (2.2) %; in data set [1] (setting [3]) it was 111 (6.4) %; in data set [1] (setting [4]) it was 98.9 (0.9) %; in data set [1] (setting [5]), 108.5 (0.6) %; in data set [1] (NO experiment (Table 7), 250 μM, LPS/IFN-γ control = 100), 100.6 (3.7) %; in data set [1] (NO experiment (Table 7), 500 μM, LPS/IFN-γ control = 100), 109.7 (5.4) %. Further, the Cell viability in data set [1] (TNF-α experiment (Table 8), 50 μM) was 97.7 (0.4) %; in data set [1] (setting [6]), 98.3 (2.3) %; in data set [1] (setting [7]) it was 96.7 (0.8) %; in data set [1] (setting [8]), 97.6 (2.5) %; in data set [1] (setting [9]), 96.1 (2.3) %; in data set [1] (setting [10]), 95.6 (1.6) %. Besides, in data set [2], the Antiradical activity was −6.21 (0.60). For the same compound, the Antiradical power in data set [2] is 12.50.
